Experimental data as given in patent US20110288082A1, “METHODS AND COMPOSITIONS FOR INHIBITION OF THE TRANSITIONAL ENDOPLASMIC RETICULUM ATPASE” (priority 2010, published 2011).
Where “and” joins values, the source holds several entries; their conditions need not be identical. Equal entries are not always repeated. Where two headings read alike, the source gives them in different places.

Columns and labels:
[1] = test system: p97-dependent Ub^G76V-GFP degradation in HeLa cells; experiment: Ub^G76V-GFP degradation (turn-over) assay; type: cell-based, human
Experimental: Ub^G76V-GFP Degradation Assay
Two GFP images with 100 ms exposure time per well were acquired and the average GFP intensity per area of a HeLa cell was determined by using MetaXpress software. Mean GFP intensity of 300-500 cells was calculated using Excel. Normalized GFP intensity was calculated using the following formula: (Test compound−Background)/(Basal GFP intensity—Background). Where: Test compound is defined as Mean GFP intensity of Ub^G76V-GFP-expressing cells treated with the test compound. Background is defined as background GFP intensity of HeLa cells. Basal GFP intensity is defined as mean GFP intensity of Ub^G76V-GFP-expressing cells treated with DMSO. […] The percent of remaining k for each compound is calculated using the following formula: (Test compound/DMSO control)*100. Where: Test_compound is defined as k determined from wells containing test compound, DMSO control is defined as k determined from wells containing DMSO.

p97 = p97 (Homo sapiens, UniProt P55072); experiment: p97 ATPase assay (Kinase Glo Plus; biomol green for compounds that interfere with luciferase); type: biochemical
Experimental: Assay Buffer (20 μL of 2.5× concentration, where 1×=50 mM Tris pH 7.4, 20 mM MgCl2, 1 mM EDTA, 0.5 mM TCEP) was dispensed into each well of a 96 well plate. Purified p97 (25 μL of 50 μM) was diluted in 975 μL, of 1× Assay Buffer and 10 μL was dispensed in each well. Test compound (10 μL) or 5% DMSO (10 μL) was then added to each well and the plate was incubated at room temperature for 10 min. The ATPase assay was carried out by adding to each well 10 μL of 500 μM ATP (pH 7.5), incubating at room temperature for 60 min, and then adding 50 μL Kinase Glo Plus reagent (Promega) followed by a final 10 min incubation at room temperature in the dark. Luminescence was read on an Analyst AD (Molecular Devices). Compounds were assayed at a range of concentrations (0, 0.048, 0.24, 1.2, 6, 30 μM) in triplicate. The percent of remaining activity for each reaction was calculated using the following mathematical expression: ((Test Compound-High Control)/(Low Control-High Control))*100. Test_Compound is defined as wells containing test compound, Low_Control is defined as wells containing DMSO, High_Control is defined as wells containing no p97 protein. […] The result was expressed as mean +/− standard error. For assays with Myriad 12 and 19, 100 μL of biomol green reagent (Enzo Life Sciences) was added to each well instead of kinase Glo Plus (Promega) and absorbance at 630 nm was measured. This was done because these compounds interfered with luciferase activity. […]

[2] = Homo sapiens, HeLa, read-out: IC50 (μM) Ub^G76V-GFP turn over, Ub^G76V-GFP-expressing HeLa cells, degradation rate constant k from 90 to 180 min, mean +/- standard error
[3] = read-out: IC50 (μM) Ub^G76V-GFP turn over, Ub^G76V-GFP-expressing HeLa cells, degradation rate constant k from 90 to 180 min, mean +/- standard error
[4] = purified p97, ATP, 60 min room temperature, mean +/- standard error
[5] = Homo sapiens, HeLa, read-out: IC50 (μM) Ub^G76V-GFP turn over, p97-dependent Ub^G76V-GFP degradation turn-over assay

p97, sequence (P55072 2-806 limits assumed): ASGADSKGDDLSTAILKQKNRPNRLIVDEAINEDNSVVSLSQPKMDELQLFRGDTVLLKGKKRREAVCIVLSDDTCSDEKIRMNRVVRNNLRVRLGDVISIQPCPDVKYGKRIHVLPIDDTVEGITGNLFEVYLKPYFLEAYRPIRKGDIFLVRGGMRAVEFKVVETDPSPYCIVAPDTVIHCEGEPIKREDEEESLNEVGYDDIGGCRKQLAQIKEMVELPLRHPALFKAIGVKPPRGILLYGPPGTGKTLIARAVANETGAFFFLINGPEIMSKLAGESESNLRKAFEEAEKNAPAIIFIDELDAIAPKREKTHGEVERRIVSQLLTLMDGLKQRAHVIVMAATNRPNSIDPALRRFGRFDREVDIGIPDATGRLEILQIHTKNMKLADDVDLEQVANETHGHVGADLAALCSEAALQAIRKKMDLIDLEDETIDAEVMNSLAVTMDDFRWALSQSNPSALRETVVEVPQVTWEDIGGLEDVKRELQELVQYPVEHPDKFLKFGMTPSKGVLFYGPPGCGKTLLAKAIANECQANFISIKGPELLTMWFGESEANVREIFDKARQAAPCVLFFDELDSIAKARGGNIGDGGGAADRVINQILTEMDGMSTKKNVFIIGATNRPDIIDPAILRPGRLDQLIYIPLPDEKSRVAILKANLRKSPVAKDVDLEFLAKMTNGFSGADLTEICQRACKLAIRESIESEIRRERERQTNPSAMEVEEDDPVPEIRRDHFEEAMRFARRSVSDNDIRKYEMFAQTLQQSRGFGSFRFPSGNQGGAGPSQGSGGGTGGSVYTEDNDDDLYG

Row | SMILES | IC50 [1, 2] [µM] | IC50 (p97; [4]) | further results
1 | COc1ccc(Nc2nc(NCc3ccccc3)c3ccccc3n2)cc1 [II-6] | 4.5 ± 1.1 | 3.8 µM and 3.5 µM | IC50 [1, 3]: 4.8 ± 0.7 µM
2 | Fc1cccc(CNc2nc(Nc3cccc(Cl)c3)nc3ccccc23)c1 [III-13] | 6.3 ± 1.7 | 1.2 ± 0.2 µM | 
3 | c1ccc(-c2nc(N3CCc4ccccc4C3)c3ccccc3n2)cc1 [Cpd I-35] |  |  | IC50 [1, 5]: 19 ± 5 µM; IC50 (p97; p97 ATPase assay): > 30 µM
4 | COc1cccc2c(NCc3ccccc3)nc(Nc3cc(C)cc(F)c3)nc12 [XI-18] | 7.1 ± 0.5 | 1.5 ± 0.2 µM | 
5 | COc1ccc(-c2nc(NCc3ccc(C)cc3)c3ccccc3n2)cc1 [I-21] | 12 ± 2 | 8 ± 2 µM | 
6 | COc1cccc2c(NCc3ccccc3)nc(N3CCN(C(C)=O)CC3)nc12 [XI-19] |  |  | IC50 [1, 5]: > 20 µM; IC50 (p97; p97 ATPase assay): > 30 µM
7 | COc1cc2nc(NCc3ccccc3)nc(NCc3ccccc3)c2cc1OC [VI-4] | 8.8 ± 1.5 | 4.4 ± 1.8 µM | 
8 | Clc1ccc(CNc2nc(Nc3cccc(Cl)c3)nc3ccccc23)cc1 [III-2] | 7.6 ± 2.4 | 2.8 ± 0.9 µM | 
9 | COc1ccc(Cl)cc1Nc1nc(NCc2ccccc2)c2ccccc2n1 [V-10] | 16 ± 6 | 1.1 ± 0.2 µM | 
10 | Fc1cccc2c(NCc3ccccc3)nc(NCc3ccccc3)nc12 [VI-10] | 18 ± 2 | 3.1 ± 0.5 µM | 
11 | Clc1ccc(CNc2nc(NCc3ccccc3)c3ccccc3n2)cc1Cl [IV-17] | 1.9 ± 0.2 | 3 ± 0.5 µM | 
12 | Cc1cccc(Nc2nc(NCc3ccccc3)c3ccccc3n2)c1 [II-12] | 3 ± 0.7 | 1.7 ± 0.5 µM | 
13 | COc1ccc(Nc2nc(N3CCN(S(=O)(=O)c4ccc(C)cc4)CC3)nc3ccccc23)cc1 [XLVIII] |  |  | IC50 [1, 5]: 39 ± 18 µM; IC50 (p97; p97 ATPase assay): 22 ± 12 µM
14 | COc1cccc2c(NCc3ccccc3)nc(N(C)Cc3ccccc3)nc12 [XI-12] | > 20 | 7 ± 3 µM | 
15 | Clc1ccc(CNc2nc(NCc3ccccc3)c3ccccc3n2)cc1 [IV-2] | 2.1 ± 0.4 | 3.1 ± 0.2 µM | 
16 | COc1cccc2c(NCc3ccccc3)nc(N(C)c3ccccc3)nc12 [XI-9] |  |  | IC50 [1, 5]: 9.2 ± 1.2 µM; IC50 (p97; p97 ATPase assay): > 30 µM
17 | COc1cccc2c(NCc3cccc(N(C)C)c3)nc(N3CCOc4ccccc43)nc12 [XII-2] |  |  | IC50 [1, 5]: 19 ± 4 µM; IC50 (p97; p97 ATPase assay): 52 ± 10 µM
18 | COc1ccc(Nc2nc(N3CCN(c4ccc([N+](=O)[O-])cc4)CC3)nc3ccccc23)c(OC)c1 [XLIX] |  |  | IC50 [1, 5]: 70 ± 16 µM; IC50 (p97; p97 ATPase assay): 43 ± 13 µM
19 | COc1cccc2c(NCc3ccccc3)nc(N3CCc4ccccc4C3)nc12 [XI-8] | 7 ± 1.3 | 15 ± 3 µM | 
20 | CC(C)c1ccc(Nc2nc(N)nc(CCl)n2)cc1 [XIV] | 14 ± 2.4 | 15 ± 5 µM | 
21 | Fc1ccc(Cl)cc1Nc1nc(NCc2ccccc2)c2ccccc2n1 [II-18] | 13 ± 2 | 13 ± 3 µM | 

Row | SMILES | IC50 [1, 2] [µM] | IC50 (p97; [4]) | further results
22 | COc1ccc(CNc2nc(NCc3ccccc3)c3ccccc3n2)cc1 [IV-5] | 1.3 ± 0.2 | 3 ± 0.5 µM | 
23 | COc1cccc2c(NCc3ccccc3)nc(NC(=O)N(C)C)nc12 [XI-7] |  |  | IC50 [1, 5]: 37 ± 7 µM; IC50 (p97; p97 ATPase assay): 60 ± 23 µM
24 | Fc1ccccc1CNc1nc(Nc2cccc(Cl)c2)nc2ccccc12 [III-8] | 7.8 ± 2.1 | 1.8 ± 0.5 µM | 
25 | COc1cccc2c(NCc3ccccc3)nc(NCC3CCCCC3)nc12 [XI-13] | 4.2 ± 1 | 5.4 ± 0.9 µM | 
26 | Cc1c(Cl)cccc1Nc1nc(NCc2ccccc2)c2ccccc2n1 [V-5] | 5.5 ± 1 | 0.7 ± 0.1 µM | 
27 | c1ccc(CNc2nc(N3CCOc4ccccc43)nc3c(-c4ccccc4)cccc23)cc1 [VII-8] | 5 ± 0.9 | 3.5 ± 0.6 µM | 
28 | Cc1ccccc1CNc1nc(NCc2ccccc2)c2ccccc2n1 [IV-6] | 1.9 ± 0.4 | 2.7 ± 0.5 µM | 
29 | Fc1ccc2c(NCc3ccccc3)nc(NCc3ccccc3)nc2c1 [VI-11] | 6.1 ± 0.8 | 2.6 ± 0.5 µM | 
30 | Fc1ccccc1-c1nc(NCc2ccccc2)c2ccccc2n1 [I-1] | 8 ± 1.7 | 1.1 µM and 3 µM | IC50 [1, 3]: 9 ± 1.3 µM
31 | COc1cccc2c(NCc3ccccc3)nc(Nc3nc4ccccc4n3C)nc12 [XI-6] | 7.8 ± 1.2 | 0.3 ± 0.07 µM | 
32 | N#CC(C(=O)COC(=O)CCC(=O)c1ccc2c(c1)OCCO2)=C1Nc2ccccc2N1 [XVIII] | 6.3 ± 0.6 | 10 ± 4 µM | 
33 | Cc1ccccc1Nc1nc(NCc2ccccc2)c2ccccc2n1 [II-7] | 10 ± 2 | 3.4 ± 1.5 µM | 
34 | Cc1cccc(-c2nc(NCc3ccccc3)c3ccccc3n2)c1 [I-5] | 17 ± 4 | 4.2 ± 0.2 µM | 
35 | Clc1ccccc1Nc1nc(NCc2ccccc2)c2ccccc2n1 [II-8] |  |  | IC50 [1, 5]: 13 ± 2 µM; IC50 (p97; p97 ATPase assay): 69 ± 25 µM
36 | CN(Cc1ccccc1)c1nc(-c2ccc([N+](=O)[O-])cc2)nc2ccccc12 [I-28] | 28 ± 4 | 8.4 ± 4 µM | 
37 | COc1ccc(-c2cccc3c(NCc4ccccc4)nc(N4CCOc5ccccc54)nc23)cc1 [VII-11] | 9 ± 1 | 1.1 ± 0.1 µM | 
38 | Brc1ccc2c(NCc3ccccc3)nc(NCc3ccccc3)nc2c1 [VI-16] |  |  | IC50 [1, 5]: 10 ± 2 µM; IC50 (p97; p97 ATPase assay): 22 ± 4 µM
39 | COc1ccc2nc(NCc3ccccc3)nc(NCc3ccccc3)c2c1 [VI-14] | 8.6 ± 1.7 | 7.5 ± 1.1 µM | 
40 | FC(F)(F)c1cc(CNc2nc(NCc3ccccc3)c3ccccc3n2)ccc1Cl [IV-18] | 2.2 ± 0.4 | 4.7 ± 1 µM | 
41 | Brc1ccc(Nc2nc(NCc3ccccc3)c3ccccc3n2)cc1 [II-5] | 6 ± 0.8 | 1.8 ± 0.4 µM | 
42 | CN(Cc1ccccc1)c1nc(-c2ccccc2[N+](=O)[O-])nc2ccccc12 [Cpd I-27] |  |  | IC50 [1, 5]: 11 ± 6 µM; IC50 (p97; p97 ATPase assay): 25 ± 11 µM

Row | SMILES | IC50 [1, 2] [µM] | IC50 (p97; [4]) | further results
43 | Fc1ccc(CNc2nc(NCc3ccccc3)c3ccccc3n2)cc1 [IV-3] | 3.4 ± 0.5 | 2.6 ± 0.2 µM | 
44 | Cc1cccc(-c2nc(NCc3ccc(F)cc3)c3ccccc3n2)c1 [I-24] | 12 ± 0.8 | 15 ± 2 µM | 
45 | Brc1cccc(Nc2nc(NCc3ccccc3)c3ccccc3n2)c1 [II-15] | 4.3 ± 0.8 | 2.5 ± 0.5 µM | 
46 | CN(Cc1ccccc1)c1nc(-c2ccccc2F)nc2ccccc12 [Cpd I-26] |  |  | IC50 [1, 5]: 6 ± 2 µM; IC50 (p97; p97 ATPase assay): 25 ± 4 µM
47 | COc1c(Cl)cccc1Nc1nc(NCc2ccccc2)c2ccccc2n1 [V-1] | 6.3 ± 1.7 | 0.9 ± 0.2 µM | 
48 | Cc1ccccc1CNc1nc(Nc2cccc(Cl)c2)nc2ccccc12 [III-6] | 11 ± 3 | 4.2 ± 1.1 µM | 
49 | Cc1nc(N2CCOc3ccccc32)nc(NCc2ccccc2)c1C [X] | 10 ± 1 | 1.1 ± 0.2 µM | 
50 | Clc1cccc(Nc2nc(Nc3ccccc3)c3ccccc3n2)c1 [XXV-2] |  |  | IC50 [1, 5]: 12 ± 2 µM; IC50 (p97; p97 ATPase assay): 34 ± 16 µM
51 | CCc1nc2ccccc2n1CC(=O)OCC(=O)C(C#N)=C1Nc2ccccc2N1 [XIX] | 7.2 ± 1.1 | 14 ± 6 µM | 
52 | Brc1cccc2c(NCc3ccccc3)nc(NCc3ccccc3)nc12 [V1-9] | 30 ± 2 | 3.3 ± 0.9 µM | 
53 | OCCOc1cccc2c(NCc3ccccc3)nc(N3CCOc4ccccc43)nc12 [VII-9] | 3.8 ± 0.8 | 0.17 ± 0.05 µM | 
54 | Clc1ccc(CNc2nc(-c3ccccc3)nc3ccccc23)cc1 [Cpd I-15] |  |  | IC50 [1, 5]: 15 ± 3 µM; IC50 (p97; p97 ATPase assay): > 30 µM
55 | COc1cccc2c(NCc3ccccc3)nc(NC(C)c3ccccc3)nc12 (stereo not drawn) [XI-11] | 2.1 ± 0.7 | 12 ± 5 µM | 
56 | COc1cccc2c(NCc3ccccc3O)nc(N3CCOc4ccccc43)nc12 [XII-8] | 6 ± 0.6 | 4.6 ± 1 µM | 
57 | COc1cccc2c(NCc3ccc(O)cc3)nc(N3CCOc4ccccc43)nc12 [XII-10] | 7.3 ± 1 | 2.4 ± 0.5 µM | 
58 | COc1ccc(Nc2nc(Nc3ccc(OC)cc3)c3ccccc3n2)cc1 [XXV-1] |  |  | IC50 ([1]; Homo sapiens, HeLa, read-out: IC50 (μM) Ub^G76V-GFP turn over): 23 ± 3 µM; IC50 (p97; p97 ATPase assay): 22 ± 4 µM
59 | COc1cccc(Nc2nc(NCc3ccccc3)c3ccccc3n2)c1 [II-16] | 4.3 ± 0.7 | 2.5 ± 0.2 µM | 
60 | Clc1cccc(Nc2nc(NCc3ccc(Br)cc3)c3ccccc3n2)c1 [III-4] | 10 ± 3 | 7.4 ± 2 µM | 
61 | COc1ccccc1CNc1nc(Nc2cccc(Cl)c2)nc2ccccc12 [III-10] | 11 ± 2 | 1.6 ± 0.4 µM | 
62 | COc1ccc(CNc2nc(Nc3cccc(Cl)c3)nc3ccccc23)cc1 [III-5] | 11 ± 4 | 2.3 ± 0.6 µM | 
